Experimental data as given in patent publication US6734185B2, “Pyrrolo[3,4-d]pyrimidines as corticotropin releasing factor (CRF) antagonists” (Bristol-Myers Squibb Pharma Company, priority 2000, dated 2004).
Structures can show the parent of a compound that is named as a salt.

CCC(CC)Nc1nc(C)nc2c1C(C)(O)N=C2c1ccc(Cl)cc1Cl (centres unmarked) [Example 7, 7-(2,4-Dichloro-phenyl)-4-(1-ethyl-propylamino)-2,5-dimethyl-5H-pyrrolo[3,4-d]pyrimidin-5-ol]
melting point: 184 to 185 °C

Cc1nc(NC(C2CC2)C2CC2)c2c(C)[nH]c(-c3ccc(Cl)cc3Cl)c2n1 (as salt: HCl) [Example 6]
melting point: 218 to 222 °C
